Laboratory results as given in patent US4472320A (priority 1981, dated 1984).
Where a name gives a salt, the structure may show the parent alone.

How the values were obtained:
[1] = biological target: AChE, eel (acetylcholinesterase, EC 3.1.1.7) (Electrophorus electricus, UniProt O42275); type: biochemical, electric eel
guinea pigs = details: guinea pig, in vivo; cited from earlier work
[2] = biological target: BuChE, horse (butyrylcholinesterase, EC 3.1.1.8) (Equus caballus, UniProt P81908); type: biochemical
Sequence of BuChE, horse (butyrylcholinesterase, EC 3.1.1.8) (P81908 whole entry): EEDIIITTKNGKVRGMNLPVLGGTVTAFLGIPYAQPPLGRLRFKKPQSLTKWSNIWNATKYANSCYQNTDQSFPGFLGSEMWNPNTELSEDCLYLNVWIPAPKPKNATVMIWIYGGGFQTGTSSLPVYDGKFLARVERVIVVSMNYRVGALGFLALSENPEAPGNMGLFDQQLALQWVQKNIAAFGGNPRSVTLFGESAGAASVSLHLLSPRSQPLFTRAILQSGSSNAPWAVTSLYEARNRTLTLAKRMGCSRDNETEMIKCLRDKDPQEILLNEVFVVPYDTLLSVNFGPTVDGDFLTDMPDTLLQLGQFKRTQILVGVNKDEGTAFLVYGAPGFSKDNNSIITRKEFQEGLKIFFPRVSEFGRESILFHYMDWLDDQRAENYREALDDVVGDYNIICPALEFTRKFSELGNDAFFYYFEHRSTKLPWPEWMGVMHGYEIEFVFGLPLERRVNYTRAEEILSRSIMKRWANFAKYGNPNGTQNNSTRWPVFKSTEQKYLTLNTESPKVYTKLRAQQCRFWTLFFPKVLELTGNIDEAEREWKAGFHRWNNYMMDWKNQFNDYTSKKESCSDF

Sequence of AChE, eel (acetylcholinesterase, EC 3.1.1.7) (O42275 24-633): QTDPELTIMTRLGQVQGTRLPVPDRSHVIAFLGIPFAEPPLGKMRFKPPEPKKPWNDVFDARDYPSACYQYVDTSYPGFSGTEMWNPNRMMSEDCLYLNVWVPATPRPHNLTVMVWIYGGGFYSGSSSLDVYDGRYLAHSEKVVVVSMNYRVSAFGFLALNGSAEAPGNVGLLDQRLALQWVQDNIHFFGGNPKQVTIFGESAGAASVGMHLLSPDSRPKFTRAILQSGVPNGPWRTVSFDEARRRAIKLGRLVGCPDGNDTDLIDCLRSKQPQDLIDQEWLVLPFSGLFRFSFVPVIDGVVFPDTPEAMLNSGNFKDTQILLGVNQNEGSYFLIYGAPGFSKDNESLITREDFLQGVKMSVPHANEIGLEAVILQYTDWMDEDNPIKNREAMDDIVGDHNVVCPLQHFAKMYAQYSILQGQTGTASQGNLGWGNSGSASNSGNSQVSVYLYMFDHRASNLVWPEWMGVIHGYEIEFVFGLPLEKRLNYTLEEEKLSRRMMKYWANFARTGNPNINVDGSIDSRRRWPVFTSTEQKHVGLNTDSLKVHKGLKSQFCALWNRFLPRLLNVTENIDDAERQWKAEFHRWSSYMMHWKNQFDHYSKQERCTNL

Structure (SMILES)	effect of oxime on spontaneous reactivation of TDPI-inhibited AChE [1]	maximum dosage which does not result in side-effects (guinea pigs)	effect of oxime on reactivation of TDPI-inhibited BuChE [2]
C[n+]1cccc(C=NO)c1 [3-PAM]	did not enhance the regeneration of enzyme activity		
CN(C)C(=O)Oc1ccc[n+](C)c1 [pyridostigmine iodide]		0.1 mg/kg	
CNC(=O)Oc1ccc2c(c1)[C@]1(C)CCN(C)[C@@H]1N2C [physostigmine sulfate]		0.1 mg/kg	
C[n+]1ccccc1C=NO.[I-] [2-PAM, 2-hydroximinomethyl-1-methylpyridinium iodide]	accelerated significantly the spontaneous reactivation		enhanced the reactivation of horse serum BuChE
